Results from ChEMBL document CHEMBL4725342, “Design, synthesis and structure-activity relationship study of piperazinone-containing thieno[3,2-d]pyrimidine derivatives as new PI3Kδ inhibitors” (Bioorg Med Chem Lett, 2020).

Experiments:
[1] = target: T1, Phosphatidylinositol 4,5-bisphosphate 3-kinase catalytic subunit delta isoform (Homo sapiens, UniProt O00329); test: Inhibition of PI3Kdelta (unknown origin)
T1 sequence (O00329 whole entry): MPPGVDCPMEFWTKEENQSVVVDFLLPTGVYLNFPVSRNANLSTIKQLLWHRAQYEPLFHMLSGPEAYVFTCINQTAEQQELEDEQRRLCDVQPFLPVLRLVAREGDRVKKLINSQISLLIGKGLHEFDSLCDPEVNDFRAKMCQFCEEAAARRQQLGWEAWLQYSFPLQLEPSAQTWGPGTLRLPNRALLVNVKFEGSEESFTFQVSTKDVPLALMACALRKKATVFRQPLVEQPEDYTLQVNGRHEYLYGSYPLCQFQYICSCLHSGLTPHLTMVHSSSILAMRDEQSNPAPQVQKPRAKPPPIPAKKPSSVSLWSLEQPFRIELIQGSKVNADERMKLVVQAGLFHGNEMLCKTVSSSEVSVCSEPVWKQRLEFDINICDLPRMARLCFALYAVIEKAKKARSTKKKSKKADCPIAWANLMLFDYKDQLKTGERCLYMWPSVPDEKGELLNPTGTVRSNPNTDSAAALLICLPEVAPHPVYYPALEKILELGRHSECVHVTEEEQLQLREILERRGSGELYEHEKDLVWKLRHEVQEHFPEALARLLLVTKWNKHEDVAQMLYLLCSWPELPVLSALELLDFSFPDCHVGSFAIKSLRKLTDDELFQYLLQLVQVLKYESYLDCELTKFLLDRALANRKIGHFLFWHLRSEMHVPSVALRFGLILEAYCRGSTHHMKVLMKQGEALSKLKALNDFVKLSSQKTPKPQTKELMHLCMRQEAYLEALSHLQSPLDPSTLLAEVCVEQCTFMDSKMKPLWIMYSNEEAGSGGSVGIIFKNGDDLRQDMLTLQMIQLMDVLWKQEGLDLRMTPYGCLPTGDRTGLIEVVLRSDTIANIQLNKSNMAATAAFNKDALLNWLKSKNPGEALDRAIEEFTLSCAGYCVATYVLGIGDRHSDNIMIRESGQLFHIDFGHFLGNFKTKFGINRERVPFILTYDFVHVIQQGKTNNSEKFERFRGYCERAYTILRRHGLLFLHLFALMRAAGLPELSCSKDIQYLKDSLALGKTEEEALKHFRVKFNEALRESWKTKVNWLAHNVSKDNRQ

Homo sapiens = organism: Homo sapiens; test: Selectivity index, ratio of IC50 for PI3Kalpha (unknown origin) to IC50 for PI3Kdelta (unknown origin)
[2] = target: Phosphatidylinositol 4,5-bisphosphate 3-kinase catalytic subunit gamma isoform (Homo sapiens, UniProt P48736); test: Inhibition of PI3Kgamma (unknown origin)
Chain of Phosphatidylinositol 4,5-bisphosphate 3-kinase catalytic subunit gamma isoform (P48736 whole entry, canonical isoform): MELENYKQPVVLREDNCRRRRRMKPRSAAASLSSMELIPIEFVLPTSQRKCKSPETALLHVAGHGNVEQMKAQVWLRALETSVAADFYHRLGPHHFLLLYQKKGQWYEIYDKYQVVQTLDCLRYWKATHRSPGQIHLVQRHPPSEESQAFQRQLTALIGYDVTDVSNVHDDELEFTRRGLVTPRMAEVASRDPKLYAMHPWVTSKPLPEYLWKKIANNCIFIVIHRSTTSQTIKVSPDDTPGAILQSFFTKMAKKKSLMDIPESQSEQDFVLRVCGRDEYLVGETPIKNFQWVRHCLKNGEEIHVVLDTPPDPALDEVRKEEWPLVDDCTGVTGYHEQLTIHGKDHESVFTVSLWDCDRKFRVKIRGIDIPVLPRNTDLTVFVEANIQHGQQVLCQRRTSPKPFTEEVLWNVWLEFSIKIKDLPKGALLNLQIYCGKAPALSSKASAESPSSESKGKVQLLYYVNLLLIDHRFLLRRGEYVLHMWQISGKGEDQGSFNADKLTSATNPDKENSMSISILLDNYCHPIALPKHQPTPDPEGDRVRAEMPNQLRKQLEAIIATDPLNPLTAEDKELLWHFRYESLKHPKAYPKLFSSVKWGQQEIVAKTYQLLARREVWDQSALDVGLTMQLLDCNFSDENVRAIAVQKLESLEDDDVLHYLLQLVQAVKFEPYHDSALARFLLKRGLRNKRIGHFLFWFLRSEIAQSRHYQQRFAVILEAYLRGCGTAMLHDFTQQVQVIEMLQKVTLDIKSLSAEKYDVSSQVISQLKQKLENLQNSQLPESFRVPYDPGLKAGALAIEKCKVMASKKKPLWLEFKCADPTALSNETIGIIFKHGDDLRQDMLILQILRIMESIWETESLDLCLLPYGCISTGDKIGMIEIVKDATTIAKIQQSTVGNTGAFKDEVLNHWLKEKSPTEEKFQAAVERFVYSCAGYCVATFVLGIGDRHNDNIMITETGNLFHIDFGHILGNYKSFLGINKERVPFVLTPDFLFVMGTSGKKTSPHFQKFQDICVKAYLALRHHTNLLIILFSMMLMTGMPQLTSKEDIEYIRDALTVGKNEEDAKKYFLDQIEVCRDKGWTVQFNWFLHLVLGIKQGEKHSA

[3] = target: Phosphatidylinositol 4,5-bisphosphate 3-kinase catalytic subunit beta isoform (Homo sapiens, UniProt P42338); test: Inhibition of PI3Kbeta (unknown origin)
Chain of Phosphatidylinositol 4,5-bisphosphate 3-kinase catalytic subunit beta isoform (P42338 whole entry, canonical isoform): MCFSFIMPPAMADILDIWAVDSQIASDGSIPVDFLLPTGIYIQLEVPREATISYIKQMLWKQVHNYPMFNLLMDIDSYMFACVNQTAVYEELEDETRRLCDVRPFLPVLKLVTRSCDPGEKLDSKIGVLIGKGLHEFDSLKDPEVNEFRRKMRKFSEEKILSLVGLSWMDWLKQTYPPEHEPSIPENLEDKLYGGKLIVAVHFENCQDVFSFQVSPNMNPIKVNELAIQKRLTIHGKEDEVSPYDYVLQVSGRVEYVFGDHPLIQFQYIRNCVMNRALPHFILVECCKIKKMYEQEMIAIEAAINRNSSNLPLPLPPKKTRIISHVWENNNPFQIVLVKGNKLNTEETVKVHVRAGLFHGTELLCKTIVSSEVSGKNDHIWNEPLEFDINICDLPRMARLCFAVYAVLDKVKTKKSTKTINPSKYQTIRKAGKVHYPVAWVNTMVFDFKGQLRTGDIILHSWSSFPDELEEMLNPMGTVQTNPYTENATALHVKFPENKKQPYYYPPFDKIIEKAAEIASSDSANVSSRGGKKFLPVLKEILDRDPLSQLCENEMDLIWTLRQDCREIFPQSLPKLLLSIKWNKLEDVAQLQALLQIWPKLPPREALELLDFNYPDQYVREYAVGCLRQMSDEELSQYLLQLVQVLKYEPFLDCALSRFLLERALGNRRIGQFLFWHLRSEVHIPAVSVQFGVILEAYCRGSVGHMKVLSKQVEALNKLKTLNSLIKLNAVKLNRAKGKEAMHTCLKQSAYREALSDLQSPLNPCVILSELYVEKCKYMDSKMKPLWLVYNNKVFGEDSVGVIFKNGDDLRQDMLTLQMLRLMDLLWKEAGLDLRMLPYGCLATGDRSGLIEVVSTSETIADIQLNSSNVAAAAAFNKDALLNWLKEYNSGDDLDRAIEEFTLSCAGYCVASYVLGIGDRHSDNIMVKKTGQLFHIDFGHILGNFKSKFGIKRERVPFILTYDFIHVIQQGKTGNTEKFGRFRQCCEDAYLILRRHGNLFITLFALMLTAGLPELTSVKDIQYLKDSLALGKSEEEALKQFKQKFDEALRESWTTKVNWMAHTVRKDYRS

OCI-Ly3 = test: Antiproliferative activity against human OCILY3 assessed as reduction in cell growth by MTS assay; format: functional, cell-based
Vero = test: Cytotoxicity against monkey Vero cells assessed as reduction in cell viability by MTS assay; format: cell-based; details: Chlorocebus sabaeus
HEK293 = test: Cytotoxicity against human HEK293 cells assessed as reduction in cell viability by MTS assay; format: cell-based
L02 = test: Cytotoxicity against human L02 cells assessed as reduction in cell viability by MTS assay; format: cell-based
[4] = target: Phosphatidylinositol 4,5-bisphosphate 3-kinase catalytic subunit alpha isoform (Homo sapiens, UniProt P42336); test: Inhibition of PI3Kalpha (unknown origin)
Chain of Phosphatidylinositol 4,5-bisphosphate 3-kinase catalytic subunit alpha isoform (P42336 whole entry, canonical isoform): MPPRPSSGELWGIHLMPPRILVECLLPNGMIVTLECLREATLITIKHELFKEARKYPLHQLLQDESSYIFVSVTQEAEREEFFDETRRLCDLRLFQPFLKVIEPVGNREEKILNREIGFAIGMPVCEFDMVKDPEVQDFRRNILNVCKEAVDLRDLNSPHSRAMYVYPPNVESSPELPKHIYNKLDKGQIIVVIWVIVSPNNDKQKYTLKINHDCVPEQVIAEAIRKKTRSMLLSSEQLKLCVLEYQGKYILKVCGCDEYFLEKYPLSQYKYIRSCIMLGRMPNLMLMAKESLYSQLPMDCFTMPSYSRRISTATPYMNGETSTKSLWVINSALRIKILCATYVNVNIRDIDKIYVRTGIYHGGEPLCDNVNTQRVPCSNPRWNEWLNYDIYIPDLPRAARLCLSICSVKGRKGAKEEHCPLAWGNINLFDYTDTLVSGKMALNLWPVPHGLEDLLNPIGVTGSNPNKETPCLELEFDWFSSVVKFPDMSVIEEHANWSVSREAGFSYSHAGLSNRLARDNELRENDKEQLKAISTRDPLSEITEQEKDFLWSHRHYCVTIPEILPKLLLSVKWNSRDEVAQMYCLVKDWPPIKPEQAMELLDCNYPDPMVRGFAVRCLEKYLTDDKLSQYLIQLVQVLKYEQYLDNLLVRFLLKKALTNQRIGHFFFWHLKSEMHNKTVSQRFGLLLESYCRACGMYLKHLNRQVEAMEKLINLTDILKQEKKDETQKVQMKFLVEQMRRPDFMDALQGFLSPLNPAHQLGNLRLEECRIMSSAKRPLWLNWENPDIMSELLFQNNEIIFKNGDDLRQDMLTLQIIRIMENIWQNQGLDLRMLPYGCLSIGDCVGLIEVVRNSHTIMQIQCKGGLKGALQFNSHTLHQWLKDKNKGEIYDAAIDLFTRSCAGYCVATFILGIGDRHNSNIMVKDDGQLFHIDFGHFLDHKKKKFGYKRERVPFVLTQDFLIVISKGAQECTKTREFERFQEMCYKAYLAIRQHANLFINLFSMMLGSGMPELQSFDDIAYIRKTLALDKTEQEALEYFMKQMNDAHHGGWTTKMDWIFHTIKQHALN

OCI-Ly10 = test: Antiproliferative activity against human OCILY10 assessed as reduction in cell growth by MTS assay; format: functional, cell-based
JeKo-1 = test: Antiproliferative activity against human JeKo-1 assessed as reduction in cell growth by MTS assay; format: functional, cell-based
SU-DHL-6 = test: Antiproliferative activity against human SU-DHL-6 assessed as reduction in cell growth by MTS assay; format: functional, cell-based

SMILES	IC50 [1]	Ratio IC50 (Homo sapiens)	further results
CCc1nc2ccccc2n1-c1nc(N2CCOCC2)c2sc(CN3CCN(S(C)(=O)=O)CC3)cc2n1	0.0041 µM	2.4	–
CCc1nc2ccccc2n1-c1nc(N2CCOCC2)c2sc(CN3CCN(c4cccnc4)C(=O)C3)cc2n1	0.013 µM	12	–
CCc1nc2ccccc2n1-c1nc(N2CCOCC2)c2sc(CN3CCN(S(=O)(=O)C4CC4)CC3)cc2n1	0.0048 µM	13	–
CCc1nc2ccccc2n1-c1nc(N2CCOCC2)c2sc(CN3CCN(C)CC3=O)cc2n1	0.0045 µM	7.7	–
CCc1nc2ccccc2n1-c1nc(N2CCOCC2)c2sc(CN3CCN(CC4CC4)CC3=O)cc2n1	0.0063 µM	64	–
CCc1nc2ccccc2n1-c1nc(N2CCOCC2)c2sc(CN3CCN(C4CCCCC4)CC3=O)cc2n1	0.012 µM	21	–
CCc1nc2ccccc2n1-c1nc(N2CCOCC2)c2sc(CN3CCN(C(=O)C4CCCCC4)CC3=O)cc2n1	0.0079 µM	43	–
CCc1nc2ccccc2n1-c1nc(N2CCOCC2)c2sc(CN3CCN(CC(=O)N4CCOCC4)C(=O)C3)cc2n1	0.015 µM	11	–
CCc1nc2ccccc2n1-c1nc(N2CCOCC2)c2sc(CN3CCN(C(=O)OC(C)(C)C)CC3=O)cc2n1	0.012 µM	52	–
CCc1nc2ccccc2n1-c1nc(N2CCOCC2)c2sc(CN3CCN(C4CCC(N(C)C)CC4)CC3=O)cc2n1 (configuration not stated)	0.014 µM	36	–
CCc1nc2ccccc2n1-c1nc(N2CCOCC2)c2sc(CN3CCN(C(=O)[C@H](C)O)CC3=O)cc2n1	0.0036 µM	49	–
CCc1nc2ccccc2n1-c1nc(N2CCOCC2)c2sc(CN3CCN(CC(N)=O)CC3=O)cc2n1	0.0062 µM	25	–
CCc1nc2ccccc2n1-c1nc(N2CCOCC2)c2sc(CN3CCN(C4CCOCC4)CC3=O)cc2n1	0.0062 µM	61	–
CCc1nc2ccccc2n1-c1nc(N2CCOCC2)c2sc(CN3CCN(S(=O)(=O)CC)CC3=O)cc2n1	0.0044 µM	10	–
CCc1nc2ccccc2n1-c1nc(N2CCOCC2)c2sc(CN3CCN(CC(F)(F)F)CC3=O)cc2n1	0.0063 µM	32	–
CCc1nc2ccccc2n1-c1nc(N2CCOCC2)c2sc(CN3CCN(C)C(=O)C3)cc2n1	0.0049 µM	53	–
CC[C@H](Nc1ncnc2[nH]cnc12)c1nc2cccc(F)c2c(=O)n1-c1ccccc1 [IDELALISIB]	–	–	IC50 (OCI-Ly3): 5.2 µM; IC50 (Vero): > 20 µM; IC50 (HEK293): > 20 µM; IC50 (L02): > 20 µM; IC50 (OCI-Ly10): > 10 µM; IC50 (JeKo-1): 0.12 µM; IC50 (SU-DHL-6): 0.12 µM
CCc1nc2ccccc2n1-c1nc(N2CCOCC2)c2sc(CN3CCN(CC(N)=O)C(=O)C3)cc2n1	0.012 µM	7.1	–
CCc1nc2ccccc2n1-c1nc(N2CCOCC2)c2sc(CN3CCN(C4CCCC4)CC3)cc2n1	0.042 µM	31	–
CCc1nc2ccccc2n1-c1nc(N2CCOCC2)c2sc(CN3CCN(C4CCN(C)CC4)CC3=O)cc2n1	0.015 µM	25	–
CCc1nc2ccccc2n1-c1nc(N2CCOCC2)c2sc(CN3CCN(CC)C(=O)C3)cc2n1	0.0041 µM	10	–
CCc1nc2ccccc2n1-c1nc(N2CCOCC2)c2sc(CN3CCN(C4CCC(O)CC4)C(=O)C3)cc2n1 (configuration not stated)	0.0057 µM	7.7	–
CCc1nc2ccccc2n1-c1nc(N2CCOCC2)c2sc(CN3CCNC(=O)C3)cc2n1	0.02 µM	13	–
CCc1nc2ccccc2n1-c1nc(N2CCOCC2)c2sc(CN3CCN(C4CCC(N5CCCC5)CC4)CC3=O)cc2n1 (configuration not stated)	0.014 µM	8	–
CCc1nc2ccccc2n1-c1nc(N2CCOCC2)c2sc(CN3CCN(C4CCC(F)(F)CC4)CC3=O)cc2n1	0.0038 µM	71	–
CCc1nc2ccccc2n1-c1nc(N2CCOCC2)c2sc(CN3CCN(C4CCSCC4)CC3=O)cc2n1	0.0048 µM	56	–

Continued by falling IC50 [1], values first:

IC50 [1]	Ratio IC50 (Homo sapiens)	SMILES	further results
0.0035 µM	4	CCCS(=O)(=O)N1CCN(Cc2cc3nc(-n4c(CC)nc5ccccc54)nc(N4CCOCC4)c3s2)C(=O)C1	–
0.0034 µM	24	CCc1nc2ccccc2n1-c1nc(N2CCOCC2)c2sc(CN3CCN(c4cnn(C)c4)C(=O)C3)cc2n1	–
0.0032 µM	35	CCc1nc2ccccc2n1-c1nc(N2CCOCC2)c2sc(CN3CCN(C(C)=O)CC3=O)cc2n1	–
0.0029 µM	–	CCc1nc2ccccc2n1-c1nc(N2CCOCC2)c2sc(CN3CCN(C4CCCC4)CC3=O)cc2n1	IC50 [2]: 0.37 µM; IC50 [3]: > 0.5 µM; IC50 (OCI-Ly3): 6.9 µM; IC50 (Vero): > 20 µM; IC50 (HEK293): > 20 µM; IC50 (L02): > 20 µM; IC50 [4]: 0.243 µM; IC50 (OCI-Ly10): > 10 µM; IC50 (JeKo-1): 0.56 µM; IC50 (SU-DHL-6): 0.53 µM
0.0029 µM	43	C=CC(=O)N1CCN(Cc2cc3nc(-n4c(CC)nc5ccccc54)nc(N4CCOCC4)c3s2)C(=O)C1	–
0.0025 µM	49	CCc1nc2ccccc2n1-c1nc(N2CCOCC2)c2sc(CN3CCN(CC4CC4)C(=O)C3)cc2n1	–
0.0022 µM	13	CCc1nc2ccccc2n1-c1nc(N2CCOCC2)c2sc(CN3CCN(C4CCC5(CC4)OCCO5)CC3=O)cc2n1	–
0.0022 µM	10	CCc1nc2ccccc2n1-c1nc(N2CCOCC2)c2sc(CN3CCN(S(C)(=O)=O)CC3=O)cc2n1	–
0.0021 µM	53	CCc1nc2ccccc2n1-c1nc(N2CCOCC2)c2sc(CN3CCN(C(C)C)CC3=O)cc2n1	–
0.0021 µM	35	CCc1nc2ccccc2n1-c1nc(N2CCOCC2)c2sc(CN3CCN([C@H]4CC[C@H](O)CC4)C(=O)C3)cc2n1	–
0.0021 µM	–	CCc1nc2ccccc2n1-c1nc(N2CCOCC2)c2sc(CN3CCN(C4CCCC4)C(=O)C3)cc2n1	IC50 [2]: > 0.5 µM; IC50 [3]: > 0.5 µM; IC50 (OCI-Ly3): 2.8 µM; IC50 (Vero): > 20 µM; IC50 (HEK293): > 20 µM; IC50 (L02): > 20 µM; IC50 [4]: 0.25 µM; IC50 (OCI-Ly10): > 10 µM; IC50 (JeKo-1): 0.17 µM; IC50 (SU-DHL-6): 0.18 µM
0.0021 µM	7.7	CCc1nc2ccccc2n1-c1nc(N2CCOCC2)c2sc(CN3CCN(c4nccs4)C(=O)C3)cc2n1	–
0.002 µM	95	CCc1nc2ccccc2n1-c1nc(N2CCOCC2)c2sc(CN3CCN(C(=O)C4CCCC4)CC3=O)cc2n1	–
0.0016 µM	–	C=CCN1CCN(Cc2cc3nc(-n4c(CC)nc5ccccc54)nc(N4CCOCC4)c3s2)C(=O)C1	IC50 [2]: 0.266 µM; IC50 [3]: 0.232 µM; IC50 (OCI-Ly3): 8.6 µM; IC50 (Vero): > 20 µM; IC50 (HEK293): > 20 µM; IC50 (L02): > 20 µM; IC50 [4]: 0.295 µM; IC50 (OCI-Ly10): > 10 µM; IC50 (JeKo-1): 0.47 µM; IC50 (SU-DHL-6): 0.57 µM
0.0016 µM	–	CCc1nc2ccccc2n1-c1nc(N2CCOCC2)c2sc(CN3CCN(C4CCC(=O)CC4)CC3=O)cc2n1	–
0.0014 µM	–	CCc1nc2ccccc2n1-c1nc(N2CCOCC2)c2sc(CN3CCN(C(=O)C4CCC4)CC3=O)cc2n1	IC50 [2]: 0.303 µM; IC50 [3]: 0.165 µM; IC50 (OCI-Ly3): 1.5 µM; IC50 (Vero): > 20 µM; IC50 (HEK293): > 20 µM; IC50 (L02): > 20 µM; IC50 [4]: 0.117 µM; IC50 (OCI-Ly10): > 10 µM; IC50 (JeKo-1): 0.12 µM; IC50 (SU-DHL-6): 0.08 µM
0.0012 µM	38	CCc1nc2ccccc2n1-c1nc(N2CCOCC2)c2sc(CN3CCN(S(=O)(=O)C4CC4)CC3=O)cc2n1	–
0.0011 µM	–	CCc1nc2ccccc2n1-c1nc(N2CCOCC2)c2sc(CN3CCN(C(=O)C4CC4)CC3=O)cc2n1	IC50 [2]: 0.185 µM; IC50 [3]: 0.137 µM; IC50 (OCI-Ly3): 2.2 µM; IC50 (Vero): > 20 µM; IC50 (HEK293): > 20 µM; IC50 (L02): > 20 µM; IC50 [4]: 0.084 µM; IC50 (OCI-Ly10): 7.6 µM; IC50 (JeKo-1): 0.19 µM; IC50 (SU-DHL-6): 0.1 µM
